The source of these data is patent publication US10076549B2, “Gastric health supplement and methods thereof” (SmartPak Equine LLC, priority 2012, dated 2018).

Assay [1] concerns nonglandular gastric ulcers. Briefly: 42-day 2-period crossover equine health study: gastroscopic nonglandular gastric ulcer number (NGN) and severity (NGS) scores. The format is in vivo, horse. The conditions noted are these: by Day 14. Here is the method: Eight healthy Thoroughbred and Thoroughbred-cross horses from the Equine Health Studies Program (EHSP) herd were used in this study. The study was performed as a 42-day 2-period crossover using a treatment group (n=8) and an untreated control (n=8).
All horses were stall-confined and fed mixed grass hay and sweet feed (OMOLENE® 100; Gray Summit, Mo.). Horses were assigned to the two treatment groups stratified by gastric ulcer score recorded on day 1 of period 1. Treated horses were fed with a Supplement composition of Example 1 above (40 g, twice daily) added to the sweet feed and control horses received no feed supplement.
Prior to beginning the study, all horses underwent physical examination. From Day 1 to Day 14, all horses were treated with omeprazole (GASTROGARD® paste, Merial Limited, Duluth, Ga.; 4 mg/kg, orally q24 h), then omeprazole was discontinued for the remainder of the study. All the horses remained stall-confined. From Day 28 to Day 35, all the horses underwent feed-deprivation, where they were muzzled and deprived of feed for 24 hours and then fed for 24 hours for a total of 96 hours to induce ulcers.
During the feed-deprivation days, the horses were fed 10% of their normal sweet feed, and the treated horses received the Supplement composition of Example 1 above (SMARTPAK® Equine, Plymouth, Mass.). From Day 35 to Day 42, all the horses returned to their normal diet to allow for recovery. The timelines of the events occurring during the period of the 42-day study were depicted in FIG. 1.
(§1) Gastroscopic examinations were performed on all the horses on Day 0, 14, 28, 35 and 42 and nonglandular gastric ulcer number (NGN) and severity (NGS) scores were assigned by the PI (FMA) who was masked to treatment (FIG. 2) (MacAllister et al. 1997). During gastroscopy, gastric juice was aspirated and pH measured.

Assay [2] can be described thus: Gastric juice pH aspirated during gastroscopy, 42-day crossover study. The format is in vivo, horse. The conditions noted are these: by Day 14, omeprazole 4 mg/kg orally q24 h. The method, then: as §1
Gastric juice pH values can be determined as follows: gastric juice of a subject animal is aspirated through the biopsy channel of an endoscope and pH is measured at specified time intervals, particularly 1 hour before and then 1 hour after administration of a therapeutic agent or Supplement composition as disclosed herein. Gastric juice pH values can be compared between the times.

Assay [3] concerns equine ulcers. Conditions: background; cited from earlier work.
Where [4] appears, read: omeprazole paste 4 mg/kg orally q24 h Day 1-14.

For `COc1ccc2nc([S+]([O-])Cc3ncc(C)c(OC)c3C)[nH]c2c1` (stereo not drawn) [omeprazole], the “horses with healed gastric ulcers in each study group” value in assay [1] (omeprazole 4 mg/kg orally q24 h, 6/8 horses) is reported as 75%. For the same compound, in assay [1] (setting [4]), the NGN score entry is “significantly decreased” and the NGS score entry is reported as “significantly decreased”. The “gastric juice pH” value in assay [2] is “increased significantly”. Besides, in assay [3], the “gastric juice pH value in horses” value was “increased” and the treating equine ulcers result is listed as “effective”.
